Assay results reported in patent US20160067272A1, “METHODS FOR TREATING IMMUNE DISEASES” (priority 2013, published 2016).
“Also recorded” adds a separate entry of the source.

What was measured:
naïve CD4+ T cells [1] = assay: Naïve CD4+ T cell differentiation without polarizing cytokines (Th0); assay type: cell-based, mouse
Description: It has been shown that NAD^+ can regulate T cell activation^36-38, but its role in T cell development was not shown. In this study, it was tested whether NAD^+ was able to regulate T cell differentiation in vitro. Naïve CD4^+ T cells were isolated from spleen of DBA mice and cultured for 96 hrs in presence of increasing NAD^+ concentration and in presence of recombinant IL-2 and stimulated with anti-CD3/CD28 antibodies. Cytokine expression and secretion were analyzed by flow cytometry and ELISA, respectively. […] Of note, the production of pro-inflammatory cytokines such as IL-6 and TNF-α or the immunosuppressive cytokine IL-10 were inhibited by NAD^| (FIG. 7A).
(§1) Single-cell leukocyte suspensions were obtained from spleens from 8-10 week old DBA mice and CD4^− T cells were isolated by negative selection using a CD4^+ T cell isolation kit (MILTENYI BIOTEC, Bergisch Gladbach, Germany). Cells were further sorted using α-CD4-PE (EBIOSCIENCE, San Diego, Calif.) and purities of CD4^+ T cells after isolation were >98%.
(§2) All recombinant cytokines and antibodies were purchased from EBIOSCIENCE except recombinant TGF-β cytokine (R&D SYSTEMS, Minneapolis, Minn.). After 96 hrs of culture supernatants and cells were collected and analyzed by ELISA and flow cytometry, respectively.
(§3) Fluorescently labeled anti-mouse α-CD4 (GK1.5), α-CD25 (PC61), α-IFN-γ (XMG1.2) and unlabeled α-CD16/CD32 (2.4G2) antibodies were obtained from BD BIOSCIENCES (San Jose, Calif.). Fluorescently labeled anti-mouse α-IL-4 (FJK-16s), α-IL-10 (JES5-16E3), α-IL-17A (eBio17B7), and anti-TGFβ (TW7-16B4) were obtained from eBIOSCIENCE (San Diego, Calif.). Intracellular staining for IL-4, IL-10, IL-17A, IFNγ and TGFβ was performed according to manufacturers' protocols. Splenocytes were re-stimulated in complete media (RPMI media containing 10% FCS, 1% L-Glutamine, 1% Penicillin/Streptomycin; all Bio Whittaker, Walkersville, Md.) for 4 hours at 37° C. with ionomycin, phorbol 12-myristate 13-acetate and Brefelding A (EBIOSCIENCE). Cells were fixed and permeabilized using CYTOFIX/CYTOPERM solution (BD BIOSCIENCES). Flow cytometry measurements of single-cell suspensions were performed on a FACSCalibur using standard procedures and data were analyzed using FLOWJO software (TREE STAR, Ashland, Oreg.).

Human nTregs = assay: Human nTreg conversion into IL-17A producing cells; assay type: cell-based
Description: Several discrepancies have been reported for mechanisms promoting Th17 cell development in mice and human^15. […] In addition, it has been shown that IL-2 inhibits Th17 development^16. In contrast, human Th17 differentiation requires IL-1β and IL-6 and can be inhibited by TFG-β and IL-2^34. […] Therefore, it was tested whether NAD^+ was a universal molecule that was able to enhance nTreg conversion into Th17 cells in human and mice as well. Human nTregs were isolated and cultured in presence of increasing NAD^− concentrations and IL-2. […] Of note, human nTregs conversion into IL-17A^+ producing cells remained CD4^+CD25^+.
For isolation of human Treg cells, peripheral blood mononuclear cells were obtained from young healthy volunteers using density gradient centrifugation with Ficoll-Paque (STEMCELL TECHNOLOGIES, Vancouver, BC, Canada). Non-CD4^+ T cells were then depleted using biotin-conjugated monoclonal anti-human antibodies against CD8, CD14, CD15, CD16, CD19, CD36, CD56, CD123, TCRγ/δ, CD235a (Glycophorin A) and anti-biotin magnetic beads (Miltenyi Biotec). […]
For cultivation of human Treg cells, recombinant human IL-2 (EBIOSCIENCE) and superparamagnetic beads coupled with human α-CD3 and α-CD28 (LIFE TECHNOLOGIES, Carlsbad, Calif.) were used. Cells were cultured during 10 days and analyzed by flow cytometry.

naïve CD4+ T cells [2] = assay: Naïve CD4+ T cell differentiation under Th17 polarizing conditions; assay type: cell-based, mouse
From the text: To elucidate the role of NAD^+ on CD4^− T cell differentiations in Th17 polarizing conditions, isolated naïve CD4^+ T cells were activated with anti-CD3/CD28 antibodies in the presence of recombinant TGFβ, IL-6 and anti-IL-4, anti-IL-12, and anti-IFNγ antibodies. […] Of note, expression of the pro-inflammatory cytokine TNF-α was inhibited in presence of NAD^+ (FIG. 1E).
as §1, §2, §3

NOD/Schilt mice = assay: Type 1 diabetes mouse model; assay type: in vivo
Description: NOD/Schilt mice were used to assess the role of NAD+ as a treatment for Type I Diabetes (T1D). By the 20th week, […] started consistently rising above the normal average. By week 25, […] were detected over 600 mg/dL. These levels were consistently high for 1 week before treatment with NAD+ was initiated. Treatment with NAD+ was given daily at 40 mg per mouse.
It is important to note that most T1D studies begin treating diabetic animals when glucose levels reach 250 mg/dl or greater for 2 consecutive days.

## NC(=O)c1ccc[n+]([C@@H]2O[C@H](COP(=O)([O-])OP(=O)(O)OC[C@H]3O[C@@H](n4cnc5c(N)ncnc54)[C@H](O)[C@@H]3O)[C@@H](O)[C@H]2O)c1 [NAD+, nicotinamide adenine dinucleotide]
naïve CD4+ T cells [1]; Th0, 96 hrs, ELISA
  IFNγ cytokine production: promote a robust
  IL-4 cytokine production: inhibit
  IL-6 production: inhibited
  IL-10 production: inhibited
  IL-17 cytokine production: promote a robust
  TNF-α production: inhibited
naïve CD4+ T cells [1]; Th0, flow cytometry
  CD4+IFNγ+ cell frequency: increased
  CD4+IL-4+ cell frequency: reduced
  CD4+IL-17+ cell frequency: increased
naïve CD4+ T cells [1]; Th0 polarizing conditions
  TGFβ production: no TGFβ production
Human nTregs; increasing NAD+ and IL-2, ELISA
  IL-17A cytokine production: enhance
Human nTregs; increasing NAD+ and IL-2, flow cytometry
  number of IL-17A+ cells: increased
naïve CD4+ T cells [2]; ELISA
  IL-10 cytokine production: reduced
  IL-17 cytokine production: did not affect
  TNF-α expression: inhibited
naïve CD4+ T cells [2]; flow cytometry
  CD4+IL-17A+ cells: no changes
NOD/Schilt mice; diabetic mice (higher than 600 mg/dl), NAD+ daily 40 mg per mouse
  blood glucose levels: much lower levels; also recorded: marked decrease
NOD/Schilt mice; diabetic mice (over 600 mg/dL), NAD+ daily 40 mg per mouse, 5 days after treatment
  insulin levels: started to decline at a significant rate
NOD/Schilt mice; within 10 days of NAD+ treatment
  activity of lethargic type 1 diabetic mice: became much more active and aggressive
